Among the data in ChEMBL document CHEMBL3507680, “University of Dundee, Gates Library screen for HepG2 cell viability” are cytotoxicity values, retold here.

The nature of this series: Human HepG2 cell viability assay in 384 well format. Type of series: toxicity, cell-based. Also noted: dose 125 nL, time 70.5 hour; cytotoxicity at 70.5 h: concentration not given beside the values. As to conditions: HepG2 cells, read-out: Inhibition.
For the compound `C1CN(CCN2CCOCC2)CCN1`, the cytotoxicity at 70.5 h was -0.136%.

Regarding `O=C1CO[C@H]2CN(C3CCOCC3)C[C@H]2N1Cc1ccncc1`, the cytotoxicity at 70.5 h was found to be 0.0501%.

For `CNC(=O)C(C)(C)N1CCC[C@H]1C(=O)NCCN1CCOCC1`, the cytotoxicity at 70.5 h was -6.76%.

As for `O=C1C[C@@H]2CCN(Cc3ccccc3)C[C@@H]2CCN1C1CCCCC1`, the cytotoxicity at 70.5 h is 6.87%.

For `COCCOc1ccc(-c2noc([C@@H]3CCCN3C3CCC3)n2)cn1`, the cytotoxicity at 70.5 h is -3.43%.

As for `COCCOc1ccnc(-c2noc([C@@H]3CCCN3CC3CC3)n2)c1`, the cytotoxicity at 70.5 h was -9.26%.

Take `COCCOc1ccnc(-c2noc([C@@H]3CCCN3C3CCC3)n2)c1`: the cytotoxicity at 70.5 h is -5.26%.

In the case of `CC(C)C[C@@H]1N[C@H](C(=O)NC(C)C)Cc2c[nH]c3cccc1c23`, the cytotoxicity at 70.5 h was -1.24%.

In the case of `CCN(CC)C1(Cc2cc(-c3cccc(O)c3)on2)COC1`, the cytotoxicity at 70.5 h was -8.06%.

For the compound `N#Cc1ccc(CN2C[C@@H]3OCC(=O)N(CC(N)=O)[C@@H]3C2)cc1`, the cytotoxicity at 70.5 h was -3.35%.

Consider `CC(C)(C)c1coc([C@@H]2COCCN2Cc2csnn2)n1`, for which the cytotoxicity at 70.5 h is -1.66%.

With `COCC(=O)N[C@H]1C[C@@H](Cc2cc(CN3CCOCC3)on2)C1(C)C`, the cytotoxicity at 70.5 h is 11.2%.

Turning to `CC[C@H]1CN(S(C)(=O)=O)CC[C@H]1CC(=O)NCCOC`, the cytotoxicity at 70.5 h was determined as 9.53%.

For `Cn1ccnc1CN1C(=O)CO[C@H]2CN(Cc3ccccc3O)C[C@H]21`, the cytotoxicity at 70.5 h is -1.59%.

Consider `CC(=O)N1CCC(N2CCOC[C@H]2c2nc(-c3ccc(Cl)s3)c[nH]2)CC1`, for which the cytotoxicity at 70.5 h was -2.53%.

With `COCCN1C[C@H]2CN(C(=O)C3CC3)CCN2C1=O`, the cytotoxicity at 70.5 h was determined as 3.48%.

On to `Cn1cc(CN2CCOC[C@H]2c2nc(C(C)(C)C)co2)c2ccccc21`, for which the cytotoxicity at 70.5 h was -2.71%.

For `Cc1nn(CCC#N)c(C)c1[C@@H]1C=C[C@@H](NCc2cccc(Cl)c2)C1`, the cytotoxicity at 70.5 h was -4.45%.

Turning to `O=C(N[C@@H]1CNCCC[C@H]1O)c1ccc(OCc2ccccc2)cc1`, the cytotoxicity at 70.5 h is -2.25%.

Consider `COc1ccc(-c2noc([C@@H]3C[C@H](NC(=O)NC(C)C)CN3C)n2)cc1`, for which the cytotoxicity at 70.5 h is -0.383%.

Consider `CCS(=O)(=O)c1ccc2oc([C@H]3CCN(Cc4ccccc4)C3)nc2c1`, for which the cytotoxicity at 70.5 h worked out at 2.59%.

As to `O=C(C1CC1)N1CC[C@H](c2nnc(Cc3c[nH]c4ccccc34)o2)C1`, the cytotoxicity at 70.5 h was -1.09%.

As for `CC(=O)N1CCC(N2CCN3C(=O)N(c4ccccc4)C[C@H]3C2)CC1`, the cytotoxicity at 70.5 h turned out to be 3.66%.

Take `c1ccc(O[C@H]2COCCN(CC3CC3)C2)cc1`: the cytotoxicity at 70.5 h was -1.48%.

For `O=C(NC[C@H]1OC[C@@H](NCc2ccccc2F)[C@@H]1O)c1ccc(F)cc1`, the cytotoxicity at 70.5 h was -3.67%.

With `O[C@H]1CC[C@@H](Cc2cc(-c3ccccc3)on2)O[C@@H]1CNCC1CC1`, the cytotoxicity at 70.5 h was -5.25%.

On to `Cc1ccc(CNC[C@H]2Cn3cc(-c4ccccc4)nc3CO2)cc1`, for which the cytotoxicity at 70.5 h is -4.13%.

In the case of `Cc1cccnc1CNC[C@H]1Cn2cc(-c3ccccc3)nc2CO1`, the cytotoxicity at 70.5 h is -6.83%.

As for `COc1ccc(CN2CC[C@H](c3nc4cccc(C(N)=O)c4[nH]3)C2)cc1`, the cytotoxicity at 70.5 h worked out at 3.39%.

For the compound `F[C@@H]1CN(CC2CCCCC2)C[C@@H]1OCc1nc2ccccc2o1`, the cytotoxicity at 70.5 h turned out to be 1.33%.

For the compound `CCS(=O)(=O)c1ccc2oc([C@H]3CCN(Cc4ccccn4)C3)nc2c1`, the cytotoxicity at 70.5 h is 2.52%.

Take `CN1CCC(N[C@@H]2CO[C@H](CNC(=O)Nc3ccccc3)[C@H]2O)CC1`: the cytotoxicity at 70.5 h is -2.44%.

In the case of `O=C(NC[C@H]1OC[C@@H](NC2CCC(F)(F)CC2)[C@@H]1O)c1ccccc1`, the cytotoxicity at 70.5 h is -0.0244%.

With `O=C1N(C2CCCCC2)C[C@H]2CN(C3CCC3)CCN12`, the cytotoxicity at 70.5 h stood at 9.88%.

With `CS(=O)(=O)NC[C@H]1Cn2c(-c3ccc4c(c3)OCCO4)cnc2CO1`, the cytotoxicity at 70.5 h was -13.2%.

As to `CC[C@H]1CN(S(C)(=O)=O)CC[C@H]1CC(=O)NCCSC`, the cytotoxicity at 70.5 h was -2.51%.

Turning to `CC(C)(C)C(=O)N1CC[C@H]2NC(=O)N(c3ccc(F)cc3)C(=O)[C@H]21`, the cytotoxicity at 70.5 h was -4.77%.

As for `O=C1N[C@@H]2CCN(C(=O)C3CC3)[C@@H]2C(=O)N1c1ccc(F)cc1`, the cytotoxicity at 70.5 h is -13.5%.

Consider `CC(C)(C)CC(=O)N1CC[C@@H](CC(=O)O)[C@@H](CCN2CCCCC2)C1`, for which the cytotoxicity at 70.5 h stood at 8.46%.

Turning to `O=C1N[C@@H]2CCN(C(=O)N3CCOCC3)[C@@H]2C(=O)N1Cc1ccccc1`, the cytotoxicity at 70.5 h was -4.61%.

As for `CS(=O)(=O)N1CC[C@@H](CC(=O)O)[C@@H](CC2=NCCc3cc(F)ccc32)C1`, the cytotoxicity at 70.5 h was -6.32%.

For `CC(C)(C)c1cn(C[C@H]2CC3CCN2C[C@@H]3C(=O)NC2CC2)nn1` (stereo not given in full), the cytotoxicity at 70.5 h came out at 10.5%.

As to `O=C(Nc1ccccc1)[C@H]1CN2CC[C@H]1C[C@@H]2Cn1cc(CCO)nn1`, the cytotoxicity at 70.5 h was -3.35%.

Consider `COc1ccc(C(=O)N2CCN3C(=O)CNC(=O)[C@@H]3C2)cc1`, for which the cytotoxicity at 70.5 h is 12.5%.

In the case of `COCC(=O)NC[C@H]1C[C@@H]2CCN1C[C@@H]2c1cc(-c2cccs2)nn1C`, the cytotoxicity at 70.5 h was -7.87%.

`O=C(NC[C@H]1C[C@@H]2CCN1C[C@@H]2CN1CCCCC1)Nc1ccccc1`: the cytotoxicity at 70.5 h was -1.01%.

As for `CN(C)CCN1C(=O)CCCC12CCCN(Cc1ccc[nH]1)C2` (stereo not given), the cytotoxicity at 70.5 h was determined as 26%.

For the compound `O=C(C1CCOCC1)N1C[C@H]2CNC[C@H]2C1`, the cytotoxicity at 70.5 h was -1.57%.

For the compound `CCS(=O)(=O)N1CCC2(CCN(CC(=O)N(C)C)C2=O)CC1`, the cytotoxicity at 70.5 h was -1.33%.

Regarding `O=C(NCc1ccccc1)N1C[C@H]2CCN[C@H]2C1`, the cytotoxicity at 70.5 h worked out at 26%.

For `CCn1nc2nc(SCC(=O)O)cc(C(F)F)c2c1C`, the cytotoxicity at 70.5 h is -5.31%.

Take `CCn1cc(N)c(-c2nnc3n2CCCC3)n1`: the cytotoxicity at 70.5 h is -2.65%.

Turning to `Cn1nccc1CNC(=O)CCn1nc(C(F)(F)F)cc1C1CC1`, the cytotoxicity at 70.5 h is -4.88%.

`Cn1nccc1CNC(=O)CCn1nc(C(F)(F)F)c(Cl)c1C1CC1`: the cytotoxicity at 70.5 h was -3.15%.

As to `Cc1cc(C)n(NC(=O)c2ccccc2C)c(=O)c1`, the cytotoxicity at 70.5 h is -3.12%.

On to `Cn1ncc(NC(=O)c2noc3c2CCCC3)c1C(=O)N1CCCCC1`, for which the cytotoxicity at 70.5 h was -6.23%.

In the case of `COc1ccc(N(c2ccccc2)c2ccc(C(=O)O)s2)cc1`, the cytotoxicity at 70.5 h is -0.368%.

Turning to `O=C1CCC(=O)N1c1nn(Cc2c(F)cccc2Cl)cc1Cl`, the cytotoxicity at 70.5 h is 6.93%.

Turning to `CCn1ncc(-c2cc(C(F)F)n3nc(CCC(=O)O)nc3n2)c1C`, the cytotoxicity at 70.5 h was -1.79%.

Consider `CCN(CC)C(=O)c1c(Cl)cnn1CC`, for which the cytotoxicity at 70.5 h is -0.536%.

`NC1C=C(C(F)(F)F)NC=C1c1ccccc1` (stereo not given): the cytotoxicity at 70.5 h was -0.126%.

As to `CC(C)c1ccc(-c2nonc2N)cc1`, the cytotoxicity at 70.5 h turned out to be 1.97%.

As to `CC(C)c1cc(CN2CCC(N)CC2)on1`, the cytotoxicity at 70.5 h was determined as 19.4%.

For the compound `CC(C)c1cc(CN2CCC(CC(=O)O)CC2)no1`, the cytotoxicity at 70.5 h is -2.18%.

As for `CCN(CC)C(=O)c1c(Br)cnn1CC`, the cytotoxicity at 70.5 h is -2.09%.

Regarding `CC(C)(C)C(Cn1cccn1)NC(=O)c1ccco1` (stereo not given), the cytotoxicity at 70.5 h was -2.47%.

With `O=C1CCC(=O)N1c1nn(Cc2cccc(F)c2)cc1Cl`, the cytotoxicity at 70.5 h was -0.348%.

As to `Cc1cc(I)c2c(c1)C(=O)C(CN1CCCC1)(CN1CCCC1)CO2`, the cytotoxicity at 70.5 h is -0.395%.

Consider `Cc1nnc(SCc2ccccn2)s1`, for which the cytotoxicity at 70.5 h turned out to be 1.03%.

For `Fc1ccccc1C1NCCc2cc3c(cc21)OCCO3` (stereo not given), the cytotoxicity at 70.5 h amounted to 0.151%.

In the case of `Cc1cc(C)n(CNc2nonc2C(N)=O)n1`, the cytotoxicity at 70.5 h was 36%.

For the compound `O=C(CN1CCCCC1)Nc1ncc(Br)cc1Br`, the cytotoxicity at 70.5 h came out at 48.9%.

`O=C(O)CCc1nc2nccc(-c3ccc(F)cc3)n2n1`: the cytotoxicity at 70.5 h was found to be 20.1%.

For the compound `Cn1cc(-c2cc(C(F)(F)F)n(CCCN)n2)cn1`, the cytotoxicity at 70.5 h was found to be 20%.

As to `CCC(CCN)n1ccc(C(F)(F)F)n1` (stereo not given), the cytotoxicity at 70.5 h is 4.74%.

As to `COc1ccccc1CNc1cnn(CC(F)F)c1`, the cytotoxicity at 70.5 h is 1.56%.

Consider `COC(=O)c1ccc(CNCc2ccn(C)n2)cc1`, for which the cytotoxicity at 70.5 h amounted to 17.7%.

With `O=C(O)CCc1nc2nccc(C(F)(F)F)n2n1`, the cytotoxicity at 70.5 h was found to be 0.723%.

For `O=C(O)c1cc(-c2cccs2)nc2c(Cl)cnn12`, the cytotoxicity at 70.5 h was -5.65%.

On to `N#Cc1cc2c(nc1SCc1cc(O)nc(O)n1)CCCC2`, for which the cytotoxicity at 70.5 h is -7.89%.

As for `COC(=O)N1CC(C)=C(C)CN1C(=O)Nc1ccc(Cl)cc1`, the cytotoxicity at 70.5 h worked out at 3.18%.

As for `Cc1cc(Br)c(O)c(-c2nc(N3CCCCC3)sc2C)c1`, the cytotoxicity at 70.5 h is 13.1%.

For `CCCc1c(C(=O)NC2CCCC2)nnn1-c1ccc(OC)cc1`, the cytotoxicity at 70.5 h stood at 16.8%.

On to `COc1ccc(-c2ccnc3c2C(=O)CCC3)cc1`, for which the cytotoxicity at 70.5 h is 25.7%.

In the case of `CC(C)c1cc(C(F)(F)F)n2nc(CCC(=O)O)nc2n1`, the cytotoxicity at 70.5 h is 10.3%.

Regarding `CCn1cc(CN(C)S(=O)(=O)c2cnn(CC)c2C)c(C)n1`, the cytotoxicity at 70.5 h amounted to 5.14%.

`COc1ccc(Oc2cncc(C3CCCN3C(C)=O)n2)cc1` (stereo not given): the cytotoxicity at 70.5 h is 31.7%.

As for `Cc1cc2cc(C(=O)N[C@@H]3CC[C@@H](N4CCOCC4)[C@@H]3O)ccc2o1`, the cytotoxicity at 70.5 h amounted to 24.8%.

In the case of `CNC(=O)C1(N2CCC[C@H]2C(=O)NC2CCCCC2)CCOCC1`, the cytotoxicity at 70.5 h was 5.4%.

For `CCNC(=O)[C@@H]1CCCN1[C@@H](C(=O)NC)C1CC1`, the cytotoxicity at 70.5 h was -2.16%.

With `CCCNC(=O)[C@@H]1CCCN1[C@@H](C(=O)NC)C1CC1`, the cytotoxicity at 70.5 h was -11.8%.

For `CNC(=O)C1(N2CCC[C@H]2C(=O)NC2CCOCC2)CCOCC1`, the cytotoxicity at 70.5 h is -6.78%.

For the compound `CC(C)NC[C@@]1(COc2ccccc2)C[C@@H](O)[C@@H](O)C1`, the cytotoxicity at 70.5 h was -5.31%.

`CNC(=O)C(C)(C)N1CCC[C@H]1C(=O)NCC(C)C`: the cytotoxicity at 70.5 h is -6.89%.

With `CN1CCCCc2c1nc1c(c2N)CCC1.O=C(O)c1cc([N+](=O)[O-])ccc1Cl`, the cytotoxicity at 70.5 h was -11.7%.
